Assay results from patent US20040005537A1, “Method of identifying toxic agents using differential gene expression” (priority 2000, published 2004).

Key:
[1] = cited from earlier work
rat heart tissue = assay: GENECALLING differential gene expression analysis after dosing of serotonin modulating agents; assay type: in vivo, Sprague Dawley rats
Method: Control animals received sterile water or canola oil. The animals were sacrificed 24 hours following the last dose. Liver tissue was dissected from the animals, and total RNA was recovered from the dissected tissue. cDNA was prepared and the resulting samples were processed through using GENECALLING™ differential expression analysis as described in U.S. Pat. No. 5,871,697 and in Shimkets et al., Nature Biotechnology 17:798-803 (1999). The contents of these patents and publications are incorporated herein by reference in their entirety.
Thousands of gene fragments were initially found to be differentially expressed in rat heart tissue in response to serotonin modulating agents in. Genes fragments whose expression levels were modulated greater than ±1.5-fold were selected for further analysis.
Column 6 of Table 1, entitled “Function”, lists the type of classification assigned for the protein, based on its function. The 210 single nucleic acid sequences identified herein, are referred to herein as CARDIOTOX 1-210.

CCN[C@@H](C)Cc1cccc(C(F)(F)F)c1 [dexfenfluramine]
classification as cardiotoxic or noncardiotoxic serotonin modulating agent ([1]; grouping used to generate the distinguishing gene profiles): cardiotoxic | side effect reported in a subset of patients ([1]; patients to which they are administered): valvular heart disease | Effects on Transcription Level: Novel gene fragment, 524 bp, 86% SI to mouse F-box protein FBX6b [AF176526] (rat heart tissue; CARDIOTOX 1): +1.5 fold | Effects on Transcription Level: Novel gene fragment, 306 bp, 91% SI to mouse low density lipoprotein receptor related protein 4 [AB013874] (rat heart tissue; CARDIOTOX 2): −1.8 fold | Effects on Transcription Level: Novel gene fragment, 540 bp, 97% SI to mouse skeletal muscle alpha-actin [X03766] (rat heart tissue; CARDIOTOX 3): +2.3 fold | Effects on Transcription Level: Novel gene fragment, 80 bp (rat heart tissue; CARDIOTOX 4): −1.6 fold | Effects on Transcription Level: Novel gene fragment, 957 bp, 99% SI to kidney injury associated moleculer HW036 [V80591] (rat heart tissue; CARDIOTOX 5): −1.6 fold | Effects on Transcription Level: Novel gene fragment, 282 bp, 85% SI to human KIAA1515 protein [AB040948] (rat heart tissue; CARDIOTOX 6): −1.7 fold | Effects on Transcription Level: Novel gene fragment, 405 bp, 88% SI to human 2-oxoglutarate dehydrogenase [D10523] (rat heart tissue; CARDIOTOX 7): +1.5 fold | Effects on Transcription Level: UCP2 (rat heart tissue; CARDIOTOX 8, GenBank AB010743): −1.6 fold | Effects on Transcription Level: Plasma membrane Ca2 + ATPase-isoform 1 (rat heart tissue; CARDIOTOX 9, GenBank J03753): −1.6 fold | Effects on Transcription Level: Novel gene fragment, 242 bp, 97% SI to mouse HSP86 heat-shock protein [X16857] (rat heart tissue; CARDIOTOX 10): +1.4 fold | Effects on Transcription Level: Novel gene fragment, 280 bp, 65% SI to human TRF1-interacting, ankyrin-related ADP-ribose polymerase [AF082556] (rat heart tissue; CARDIOTOX 11): +1.4 fold | Effects on Transcription Level: Novel gene fragment, 348 bp, 88% SI to mouse Sec61 protein complex gamma subunit [U11027] (rat heart tissue; CARDIOTOX 12): +1.3 fold | Effects on Transcription Level: Novel gene fragment 553 bp, 93% SI to mouse Sid329 [AB024984] (rat heart tissue; CARDIOTOX 13): +1.4 fold | Effects on Transcription Level: Kruppel-like transcription factor (rat heart tissue; CARDIOTOX 14, GenBank AB020759): +1.3 fold | Effects on Transcription Level: Ribosomal protein L3 (rat heart tissue; CARDIOTOX 15, GenBank X62166): +1.4 fold | Effects on Transcription Level: Glucose-regulated protein (GRP) 75 (rat heart tissue; CARDIOTOX 16, GenBank S78556): +1.4 fold | Effects on Transcription Level: Immunoglobulin heavy chain binding protein (BiP) (rat heart tissue; CARDIOTOX 17, GenBank M14050): +1.4 fold | Effects on Transcription Level: Membrane-spannining proteoglycan NG2 (rat heart tissue; CARDIOTOX 18, GenBank X56541): −1.4 fold | Effects on Transcription Level: Novel gene fragment, 1294 bp, 96% SI to mouse Sui 1 (elF) homolog [AF129888] (rat heart tissue; CARDIOTOX 19): +1.6 fold | Effects on Transcription Level: Novel gene fragment, 723 bp, 85% SI to human translation initiation factor elF3 p40 subunit [U54559] (rat heart tissue; CARDIOTOX 20): +1.6 fold | Effects on Transcription Level: Novel gene fragment, 1324 bp, 76% SI to human flavoprotein subunit of complex II [D30648] (rat heart tissue; CARDIOTOX 21): +1.5 fold | Effects on Transcription Level: Novel gene fragment, 852 bp, 81% SI to human vacuolar proton-ATPase subunit M9.2 [Y15286] (rat heart tissue; CARDIOTOX 22): +1.5 fold | Effects on Transcription Level: Novel gene fragment, 178 bp, 91% SI to mouse myosin light chain-2 isoform MLC-2a [S70785] (rat heart tissue; CARDIOTOX 23): +1.6 fold | Effects on Transcription Level: Novel gene fragment, 167 bp, 90% SI to mouse Rab20 [X80332] (rat heart tissue; CARDIOTOX 24): +1.7 fold | Effects on Transcription Level: Novel gene fragment, 1070 bp, 80% SI to human muscle-specific protein [AF249873] (rat heart tissue; CARDIOTOX 25): +1.5 fold | Effects on Transcription Level: Novel gene fragment, 1143 bp, 82% SI to human sarcoma amplified sequence (SAS) [U01160] (rat heart tissue; CARDIOTOX 26): +1.7 fold | Effects on Transcription Level: Novel gene fragment, 74 bp,75% SI to human secreted protein [X30160] (from patent database)/[X97578] (from patent database)/potential cytokine) (rat heart tissue; CARDIOTOX 27): +1.5 fold | Effects on Transcription Level: Novel gene fragment, 408 bp, 90% SI to human CGI-07 protein [AF132941] (rat heart tissue; CARDIOTOX 28): +1.6 fold | Effects on Transcription Level: Novel gene fragment, 618 bp, 95% SI to rat progression related cDNA, ZNPE-120 3′ end partial sequence [patent database X90805] (rat heart tissue; CARDIOTOX 29): +1.5 fold | Effects on Transcription Level: Novel gene fragment, 717 bp (rat heart tissue; CARDIOTOX 30): +1.5 fold | Effects on Transcription Level: Novel gene fragment, 546 bp (rat heart tissue; CARDIOTOX 31): +1.8 fold | Effects on Transcription Level: Novel gene fragment, 920 bp, 91% SI to human HSPC061 [AF161546] (rat heart tissue; CARDIOTOX 32): +1.5 fold | Effects on Transcription Level: Novel gene fragment, 203 bp, 92% SI to rabbit sarcoplasmic reticulum glycoprotein [J04480] (rat heart tissue; CARDIOTOX 33): −1.7 fold | Effects on Transcription Level: Novel gene fragment, 178 bp, 68% SI to mouse IgG receptor (beta-Fc-gamma-RII)[M63159] (rat heart tissue; CARDIOTOX 34): +1.6 fold | Effects on Transcription Level: Ribosomal protein L6 (rat heart tissue; CARDIOTOX 35, GenBank X87107): +1.6 fold | Effects on Transcription Level: CAP2 protein (adenylyl cyclase-associated protein 2) (rat heart tissue; CARDIOTOX 36, GenBank U31935): +2.0 fold | Effects on Transcription Level: Alpha-platelet-derived growth factor receptor (rat heart tissue; CARDIOTOX 37, GenBank M63837): +1.6 fold | Effects on Transcription Level: Rab GD1 alpha protein (rat heart tissue; CARDIOTOX 38, GenBank X74402): −1.6 fold | Effects on Transcription Level: PKC-zeta-interacting protein (rat heart tissue; CARDIOTOX 39, GenBank Y08355): +1.6 fold | Effects on Transcription Level: ERK or MAP kinase (rat heart tissue; CARDIOTOX 40, GenBank X65198): +1.5 fold | Effects on Transcription Level: Peroxisomal multifunctional enzyme type II (rat heart tissue; CARDIOTOX 41, GenBank U37486): +1.5 fold | Effects on Transcription Level: HBP23 (heme-binding protein 23 kDa) (rat heart tissue; CARDIOTOX 42, GenBank D30035): +1.7 fold | Effects on Transcription Level: Caveolae-associated protein (rat heart tissue; CARDIOTOX 43, GenBank U90725): +3.0 fold | Effects on Transcription Level: Prenylated rab acceptor 1 (PRA1) (rat heart tissue; CARDIOTOX 44, GenBank AF025506): +1.5 fold | Effects on Transcription Level: Novel gene fragment, 337 bp, 88% SI to rabbit cardiac ryanodine receptor (RyR-2)[U50465] (rat heart tissue; CARDIOTOX 45): −1.7 fold | Effects on Transcription Level: Novel gene fragment, 81 bp, 85% SI to human titin [X90568] (rat heart tissue; CARDIOTOX 46): −2.2 fold | Effects on Transcription Level: Novel gene fragment, 428 bp, 86% SI to human titin [X90568] (rat heart tissue; CARDIOTOX 47): −2.0 fold | Effects on Transcription Level: Novel gene fragment, 374 bp, 88% SI to human titin [X90568] (rat heart tissue; CARDIOTOX 48): −2.3 fold | Effects on Transcription Level: Novel gene fragment, 428 bp, 85% SI to human titin [90568] (rat heart tissue; CARDIOTOX 49): −2.2 fold | Effects on Transcription Level: Novel gene fragment, 1216 bp, 93% SI to mouse mircotubule-associated protein (MAP) 1B protein [AF115776] (rat heart tissue; CARDIOTOX 50): −1.9 fold | Effects on Transcription Level: Novel gene fragment, 1115 bp, 83% SI to human KIAA0549 protein [AB011121] (rat heart tissue; CARDIOTOX 51): −2.0 fold | Effects on Transcription Level: Novel gene fragment, 153 bp (rat heart tissue; CARDIOTOX 52): −1.7 fold | Effects on Transcription Level: Novel gene fragment, 89 bp, 93% SI to human putative glialblastoma cell differentiation-related protein (GBDR1) [AF068195] (rat heart tissue; CARDIOTOX 53): −1.6 fold | Effects on Transcription Level: Rho-associated kinase beta (rat heart tissue; CARDIOTOX 54, GenBank U61266): −1.9 fold | Effects on Transcription Level: Adenylate kinase 3 (rat heart tissue; CARDIOTOX 55, GenBank D13062): +1.5 fold | Effects on Transcription Level: Amyloid beta-peptide binding protein (rat heart tissue; CARDIOTOX 56, GenBank AF049878): +1.5 fold | Effects on Transcription Level: Mitochondrial adenine nuleotide translocator (rat heart tissue; CARDIOTOX 57, GenBank D12771): +1.5 fold | Effects on Transcription Level: Novel gene fragment, 710 bp, 94% SI to mouse chromatin structural protein homolog Supt5 hp (Supt5 h)[U88539] (rat heart tissue; CARDIOTOX 58): +3.8 fold | Effects on Transcription Level: Novel gene fragment, 186 bp, 66% SI to human N-acetylglucosaminyltransferase 1 (GlcNAc-TI)[M55621] (rat heart tissue; CARDIOTOX 60): −1.7 fold | Effects on Transcription Level: Novel gene fragment, 238 bp, 95% SI to mouse MAP kinase-activated protein kinase 2 [X76850] (rat heart tissue; CARDIOTOX 61): −2.1 fold | Effects on Transcription Level: Novel gene fragment, 173 bp, 70% SI to G protein-coupled receptor kinase GRK4 [X97568] (rat heart tissue; CARDIOTOX 62): −6.1 fold | Effects on Transcription Level: Novel gene fragment, 133 bp, 77% SI to human apoptosis related protein hSARP3 [patent database: V19114] (rat heart tissue; CARDIOTOX 63): −3.4 fold | Effects on Transcription Level: Novel gene fragment, 477 bp, 98% SI to peroxisomal phytanoyl-CoA hydroxylase (PHYH) [AF121345] (rat heart tissue; CARDIOTOX 64): +5.0 fold | Effects on Transcription Level: Novel gene fragment, 413 bp, 95% SI to mouse dihydrolipoamide dehydrogenase (Dld) [U73445] (rat heart tissue; CARDIOTOX 65): +1.9 fold | Effects on Transcription Level: Novel gene fragment, 726 bp, 76% SI to human succinate dehydrogenase flavoprotein subunit (SDH) [L21936] (rat heart tissue; CARDIOTOX 66): −4.1 fold | Effects on Transcription Level: Novel gene fragment, 440 bp, 92% SI to mouse cytochrome c oxidase Vllc [X52940] (rat heart tissue; CARDIOTOX 67): +3.6 fold | Effects on Transcription Level: Novel gene fragment, 276 bp, 80% SI to human titin [X90568] (rat heart tissue; CARDIOTOX 68): −11.9 fold | Effects on Transcription Level: Novel gene fragment, 149 bp, 70% SI to human titin [X90568] (rat heart tissue; CARDIOTOX 69): −5.5 fold
